{"source": "patent US4254124A", "about": "“Antidepressant agent” (priority 1979, dated 1981)", "key": {"mouse [1]": {"test_system": "mouse", "assay": "Inhibition of pernicious preening in mice (anti-psychotic or analgetic)", "assay_type": "in vivo", "details": "oral", "source_text": "mice (anti-psychotic or analgetic)^3"}, "[2]": {"assay": "ALD50/ATD50 Mouse (lethal toxicity and first signs of pharmacologic activity)", "details": "mouse, in vivo, po", "source_text": "(§1) ^4 Groups of 10 mice treated variously with geometrically increasing\n(§2) doses of test compound with observations of lethal toxicity (ALD50)\n(§3) and for first signs of pharmacologic activity (ATD50)."}, "mouse [3]": {"test_system": "mouse", "assay": "ALD50/ATD50 Mouse (lethal toxicity and first signs of pharmacologic activity)", "source_text": "as §1, §2, §3"}, "mouse [4]": {"test_system": "mouse", "assay": "Reduction of phenylquinone writhing in mice (analgetic)", "assay_type": "in vivo", "details": "oral", "from_the_text": "Reduction of phenylquinone writhing\n^2 Hendershot, et al., J. Pharmacol. & Exptl. Ther. 125, 237 (1959)."}, "alpha-adrenergic": {"test_system": "alpha-adrenergic", "assay": "blood pressure response to 1-epinephrine (alpha-adrenergic blocking action), anesthetized dog", "assay_type": "in vivo"}, "mouse [5]": {"test_system": "mouse", "assay": "Mouse, tail clip (analgetic)", "assay_type": "in vivo", "details": "oral", "from_the_text": "Mouse, tail clip (analgetic)^1\n^1 Bianchi, et al., Brit. J. of Pharmacology 9, 280 (1954)."}, "dog": {"test_system": "dog", "assay": "carotid arterial blood pressure in pentobarbital anesthetized dog", "assay_type": "in vivo", "details": "1 and 10 mg./kg. intravenously"}, "mouse [6]": {"test_system": "mouse", "assay": "spontaneous motor activity", "assay_type": "in vivo", "from_the_text": "More particularly, in the measurement of spontaneous motor activity in the mouse using the device and method described by Kissel in U.S. Pat. No. 3,100,473 patented Aug."}, "mouse [7]": {"test_system": "mouse", "assay": "reserpine-induced ptosis prevention (oral pretreatment)", "assay_type": "in vivo", "details": "for ED50: Mus musculus, po, p.o. before reserpine 2.0 mg./kg. i.v., prevention in 50% of the animals"}, "in vivo": {"assay": "in vivo", "details": "mouse, po", "source_text": "as §1, §2, §3"}, "[8]": {"assay": "animal tests, propensity for adverse reactions (general statement)", "assay_type": "in vivo", "details": "central nervous system depression, hypotensive action, and others; vs trazodone", "procedure": "More particularly, in the measurement of spontaneous motor activity in the mouse using the device and method described by Kissel in U.S. Pat. No. 3,100,473 patented Aug. […] In contrast, trazodone at a dose of 15.3 mg./kg. caused a 30% reduction in spontaneous motor activity. […] Other animal test results in which MJ 12762 has been compared to trazodone are arranged in the following table."}, "[9]": {"assay": "animal tests, antidepressant activity (general statement)", "assay_type": "in vivo"}, "patients": {"test_system": "patients", "details": "cited from earlier work"}, "[10]": {"details": "U.S. Pat. No. 3,381,009; cited from earlier work"}, "[11]": {"details": "vs imipramine, Fabre et al. 1979"}}, "data": [{"smiles": "O=c1n(CCCN2CCN(c3cccc(C(F)(F)F)c3)CC2)nc2ccccn12", "note": "[MJ 12762, 2-[3-[4-[3-(Trifluoromethyl)phenyl]-1-piperazinyl]propyl]-1,2,4-triazolo[4,3-a]pyridin-3(2H)-one]", "values": [{"measurement": "inhibition of pernicious preening, activity in words", "setting": "mouse [1]", "result": "Inactive"}, {"measurement": "inhibition of pernicious preening, animals responding", "setting": "mouse [1]; at 31 mg./kg.", "result": "2 of 10"}, {"measurement": "TD50", "setting": "[2]", "result": "8 to 15.7", "unit": "mg/kg"}, {"measurement": "acute toxicity relative to trazodone", "setting": "mouse [3]; mouse", "result": "somewhat greater than that of trazodone"}, {"measurement": "propensity for signs of overt pharmacologic activity unrelated to utility", "setting": "mouse [3]; vs trazodone", "result": "reduced as compared to trazodone"}, {"measurement": "ED50", "setting": "mouse [4]", "result": 6.1, "unit": "mg/kg"}, {"measurement": "effect on the blood pressure response to 1-epinephrine (alpha-adrenergic blocking action)", "setting": "alpha-adrenergic; intravenous doses of 1 and 10 mg./kg.", "result": "lack of alpha-adrenergic blocking action"}, {"measurement": "ED50", "setting": "mouse [5]", "result": 94, "unit": "mg/kg"}, {"measurement": "effect on blood pressure", "setting": "dog", "result": "without effect on blood pressure"}, {"measurement": "effect on spontaneous motor activity", "setting": "mouse [6]; 20, 40 and 80 mg. per kg. orally", "result": "neither stimulation nor depression"}, {"measurement": "ED50", "setting": "mouse [7]", "result": 14, "unit": "mg/kg"}, {"measurement": "potency relative to trazodone, reserpine ptosis", "setting": "mouse [7]; p.o., vs trazodone", "result": "two to three times more potent than trazodone"}, {"measurement": "LD50", "setting": "in vivo", "result": "250 to 500", "unit": "mg/kg"}, {"measurement": "propensity for adverse reactions", "setting": "[8]", "result": "significantly reduced propensity for adverse reactions"}, {"measurement": "antidepressant activity relative to trazodone", "setting": "[9]", "result": "comparable in antidepressant activity to trazodone"}]}, {"smiles": "O=c1n(CCCN2CCN(c3cccc(Cl)c3)CC2)nc2ccccn12", "note": "[trazodone, 2-[3-[4-(3-chlorophenyl)-1-piperazinyl]propyl]-1,2,4-triazolo[4,3-a]pyridin-3(2H)-one, reference compound]", "values": [{"measurement": "adverse reactions sometimes observed in patients", "setting": "patients; endogenous or neurotic depression", "result": "hypotension,fatigue, drowsiness, and nasal or sinus congestion"}, {"measurement": "antidepressant effectiveness in clinical use", "setting": "patients; [11]", "result": "equivalent in effectiveness to imipramine"}, {"measurement": "side effects in clinical use", "setting": "patients; [11]", "result": "fewer side effects"}, {"measurement": "ED50", "setting": "mouse [1]; Mus musculus", "result": 43, "unit": "mg/kg"}, {"measurement": "pharmacological action in various animal tests", "setting": "[10]", "result": "tranquilizing action, hypotensive action, and analgesic action"}, {"measurement": "TD50", "setting": "[2]", "result": "2 to 4", "unit": "mg/kg"}, {"measurement": "effect on the blood pressure response to 1-epinephrine bitartrate (alpha-adrenergic blocking action)", "setting": "alpha-adrenergic; 10 mg./kg. intravenously", "result": "blocked the effect of 1-epinephrine bitartrate"}, {"measurement": "effect on blood pressure", "setting": "dog", "result": "depressor response"}, {"measurement": "reduction in spontaneous motor activity", "setting": "mouse [6]; 15.3 mg./kg.", "result": 30, "unit": "%"}, {"measurement": "ED50", "setting": "mouse [7]", "result": 36, "unit": "mg/kg"}]}]}
